*1 amine or outer side, *2 acyl side, *3 side chain or, on linkers, in order; H or OH if unused. Where a SMILES comes first, the peptide text is derived from it. Bridges are numbered along the chain shown (N, C = ends). The star is where a group is joined. X1 = NC(=O)CN1CCN(CC(=O)O)CCN(CC(=O)*)CCN(CC(=O)O)CC1; oXylylene = c1ccc(C[*:2])c(C[*:1])c1; PEG2 = NCCOCCOCCC(=O)O
Columns and labels:
Test in all cases: Enzyme inhibition assay, binding specificity of VMT-FAP-2-59 (Example 3)
Type in all cases: biochemical
Details in all cases: 50 μM Z-GP-AMC
human FAP = target: T1, human FAP (Homo sapiens, UniProt Q12884)
T1 sequence (Q12884 1-760): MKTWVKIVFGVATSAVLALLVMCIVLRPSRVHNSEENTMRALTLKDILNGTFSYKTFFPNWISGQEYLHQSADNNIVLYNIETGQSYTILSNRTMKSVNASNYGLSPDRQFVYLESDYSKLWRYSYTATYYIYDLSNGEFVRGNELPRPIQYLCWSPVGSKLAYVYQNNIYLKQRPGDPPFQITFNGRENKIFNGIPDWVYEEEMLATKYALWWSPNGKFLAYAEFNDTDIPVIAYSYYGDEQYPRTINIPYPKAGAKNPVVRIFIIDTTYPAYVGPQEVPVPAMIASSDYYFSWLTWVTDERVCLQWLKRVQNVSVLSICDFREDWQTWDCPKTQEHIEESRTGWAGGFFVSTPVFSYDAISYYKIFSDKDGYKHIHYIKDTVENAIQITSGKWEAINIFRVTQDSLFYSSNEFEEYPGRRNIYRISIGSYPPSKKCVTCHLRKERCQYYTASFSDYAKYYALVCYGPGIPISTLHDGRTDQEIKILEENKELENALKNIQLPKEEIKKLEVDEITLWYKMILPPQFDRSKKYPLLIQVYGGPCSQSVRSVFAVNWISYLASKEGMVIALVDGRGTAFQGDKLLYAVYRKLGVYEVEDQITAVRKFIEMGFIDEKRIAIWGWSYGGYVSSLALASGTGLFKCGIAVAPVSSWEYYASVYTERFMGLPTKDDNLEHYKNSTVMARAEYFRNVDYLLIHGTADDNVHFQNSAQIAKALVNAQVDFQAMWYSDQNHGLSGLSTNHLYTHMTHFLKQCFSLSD
Protocol: (§1) The enzyme inhibition assay was performed to determine inhibitor constant (i.e., Ki) values against human FAP, mouse FAP, human dipeptidyl peptidase 4 (DPPIV) and human prolyl endopeptidase (PREP). Z-GP-AMC was used as substrate for human FAP, mouse FAP and human PREP. GP-AMC was used as substrate for human DPPIV. To perform the assay, VMT-FAP-2-59 at varying concentrations (i.e. 10^−6 to 10^−12) were incubated with 5 ng hFAP, 5 ng mFAP, 2.5 ng DPPIV, or 5 ng PREP in a black 96-well plate for 10 minutes at RT on a shaker plate. The substrate was added to give a final concentration of 50 μM for Z-GP-AMC and GP-AMC. The total reaction volume per well was 100 μL The reaction was allowed to incubate at RT on a shaker plate for 1 hour protected from light, and then fluorescence was read with a BioTek Synergy LX plate reader at an ex/em (360/40 and 460/40). Experiments were performed in at least duplicate. Buffer only, buffer/enzymes, buffer/substrate and enzyme only were included as controls. Data was plotted in GraphPad Prism and non-linear regression used to calculate IC50 values. Binding kinetics (Kd) of VMT-FAP-2-59 against human FAP, human DPPIV and human PREP were also determined by grating-coupled interferometry (GCI). hFAP, hDPPIV and hPREP proteins were fixed on PCH (N=3) chips or PCP (N=2). […] On PCP chips, binding affinity of VMT-FAP-2-29 to hFAP was determined from 39 pM to 20 nM. Binding affinity to hDPPIV and hPREP was determined at concentration from 39 pM to 50 nM.

[1] = target: T2, human prolyl endopeptidase (PREP) (Homo sapiens, UniProt P48147)
T2 sequence (P48147 1-710): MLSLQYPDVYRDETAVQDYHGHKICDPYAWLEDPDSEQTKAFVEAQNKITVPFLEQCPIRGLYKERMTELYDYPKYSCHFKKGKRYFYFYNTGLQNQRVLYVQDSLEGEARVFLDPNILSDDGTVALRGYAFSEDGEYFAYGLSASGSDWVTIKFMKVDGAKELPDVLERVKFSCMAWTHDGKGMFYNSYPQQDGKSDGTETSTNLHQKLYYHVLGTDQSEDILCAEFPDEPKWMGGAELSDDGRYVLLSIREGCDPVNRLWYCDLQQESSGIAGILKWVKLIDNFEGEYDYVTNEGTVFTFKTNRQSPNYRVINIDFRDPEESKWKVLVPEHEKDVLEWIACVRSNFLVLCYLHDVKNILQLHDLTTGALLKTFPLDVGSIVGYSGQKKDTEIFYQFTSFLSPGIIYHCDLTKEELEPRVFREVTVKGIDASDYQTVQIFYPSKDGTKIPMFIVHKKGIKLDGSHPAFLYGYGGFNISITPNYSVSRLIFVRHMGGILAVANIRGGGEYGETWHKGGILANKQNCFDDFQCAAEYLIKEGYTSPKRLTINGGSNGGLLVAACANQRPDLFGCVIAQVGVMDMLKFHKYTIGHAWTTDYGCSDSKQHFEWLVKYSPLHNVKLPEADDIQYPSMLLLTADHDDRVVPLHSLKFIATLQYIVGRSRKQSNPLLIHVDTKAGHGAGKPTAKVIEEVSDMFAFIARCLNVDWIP
Protocol: as §1

mouse FAP = target: T3, mouse FAP (Mus musculus, UniProt P97321)
T3 sequence (P97321 1-761): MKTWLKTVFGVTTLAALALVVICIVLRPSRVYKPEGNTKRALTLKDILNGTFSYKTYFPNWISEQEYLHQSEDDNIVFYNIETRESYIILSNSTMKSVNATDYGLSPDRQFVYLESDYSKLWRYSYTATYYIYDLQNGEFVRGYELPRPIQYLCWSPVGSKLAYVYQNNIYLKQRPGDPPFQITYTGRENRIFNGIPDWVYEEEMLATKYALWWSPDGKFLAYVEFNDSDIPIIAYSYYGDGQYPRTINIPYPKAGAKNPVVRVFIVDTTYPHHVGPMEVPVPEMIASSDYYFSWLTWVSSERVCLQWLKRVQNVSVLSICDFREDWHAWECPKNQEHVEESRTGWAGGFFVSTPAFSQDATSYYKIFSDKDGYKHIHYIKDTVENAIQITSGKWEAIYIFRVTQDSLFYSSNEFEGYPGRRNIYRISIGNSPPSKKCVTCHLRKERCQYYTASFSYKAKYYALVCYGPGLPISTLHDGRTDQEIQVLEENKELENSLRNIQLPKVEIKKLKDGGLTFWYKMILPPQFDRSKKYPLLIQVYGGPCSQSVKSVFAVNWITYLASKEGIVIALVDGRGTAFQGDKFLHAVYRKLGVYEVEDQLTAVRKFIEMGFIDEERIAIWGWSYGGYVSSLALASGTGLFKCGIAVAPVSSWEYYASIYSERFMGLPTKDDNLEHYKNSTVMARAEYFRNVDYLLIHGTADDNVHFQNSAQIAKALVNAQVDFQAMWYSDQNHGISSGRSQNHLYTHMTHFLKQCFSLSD
Protocol: as §1

Question: For `C[C@@H](O)[C@@H]1NC(=O)[C@@H](NC(=O)CCOCCOCCNC(=O)CN2CCN(CC(=O)O)CCN(CC(N)=O)CCN(CC(=O)O)CC2)CSCc2ccccc2CSC[C@@H](C(N)=O)NC(=O)[C@H](Cc2c[nH]c3ccccc23)NC(=O)[C@H](Cc2c[nH]c3ccccc23)NC(=O)[C@H](CCC(N)=O)NC(=O)[C@H](CCC(=O)O)NC(=O)[C@H](Cc2c[nH]c3ccccc23)NC(=O)[C@@H]2CCCN2C1=O` [VMT-FAP-2-59, PSC-PEG2-[C(oXdB)TPWEQWWC]-NH2] ({X1-PEG2}-CTPWEQWWC-NH2; linker 1-9 via oXylylene), which Ki (human FAP) is on record?
Answer: The Ki was 0.4 nM.

Question: And the Ki [1]?
Answer: Its Ki is 152 nM.

Question: What about the Ki (mouse FAP) of the same molecule?
Answer: Its Ki is 4.2 nM.

— patent US12514938B2, “Fibroblast activation protein targeting peptides” (PERSPECTIVE THERAPEUTICS, INC., priority 2023, dated 2026)
